Measurements: patent publication US20230263168A1, “COMBINED FUNGICIDAL PREPARATIONS AND METHODS FOR USING THEREOF” (SAVE FOODS LTD., priority 2020, published 2023)

Tested on: Penecillium Digitatum
Test: Example 3, Trials 1-3: decay of inoculated clementine stored at room temp
Format: in vivo, Penecillium Digitatum on Clementine
Description: Fruits: Clementine; Inoculum: Penecillium Digitatum 10^5; Inoculation: 24 hours prior to treatment.
Storage: Cartons of fruit from all the treatments were stored for several days at room temp to monitor fruit spoilage and treatment efficacy.

SMILES | % decay (waste) 9 days at room temp (Trial 3, PAA 150 ppm only) | % decay (waste) 12 days at room temp (Trial 1, IMZ 250 ppm, PAA 0, ACIDS 0) | % decay (waste) 9 days at room temp (Trial 2, IMZ 250 ppm, PAA 0, ACIDS 0) | % decay (waste) 9 days at room temp (Trial 2, IMZ 500 ppm, PAA 0, ACIDS 0) | % decay (waste) 9 days at room temp (Trial 3, IMZ 250 ppm, PAA 0, ACIDS 0) | % decay (waste) 9 days at room temp (Trial 3, IMZ 500 ppm, PAA 0, ACIDS 0)
CC(=O)OO [PAA, peracetic acid] | 36% |  |  |  |  | 
C=CCOC(Cn1ccnc1)c1ccc(Cl)cc1Cl (stereo not drawn) [IMZ, imazalil] |  | 55% | 40% | 19% | 35% | 24%
